Reference: the supplement of paper PMC10307832

Tests used:
Test in all cases: relative viability (nuclei count vs DMSO), 5 days (fraction); higher = more cells survive
[1] = test system: 201T
Procedure, shortened: (§1)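 A single step with final 0.05% Triton X-100, 1% formaldehyde and 1 ug/ml Hoechst fixed the cells and stained nuclei 5 days after treatment. Lung cancer cell lines in 1536-well plates had been treated by pin tool the day after seeding with one drug alone or a fixed anchor-drug dose plus five library-drug doses (not always all listed) in √10 steps, and nuclei were counted on 4× images. Relative viability is the ratio of nuclei in treated wells to nuclei in vehicle wells, taken as the median of duplicate plates.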

[2] = test system: BEN
Procedure, shortened: as §1

[3] = test system: CAL-12T
Procedure, shortened: as §1

[4] = test system: HCC-44
Procedure, shortened: as §1

[5] = test system: HCC-827
Procedure, shortened: as §1

[6] = test system: HOP-62
Procedure, shortened: as §1

[7] = test system: LCLC-103H
Procedure, shortened: as §1

[8] = test system: LCLC-97TM1
Procedure, shortened: as §1

[9] = test system: LXF-289
Procedure, shortened: as §1

[10] = test system: NCI-H1395
Procedure, shortened: as §1

[11] = test system: NCI-H1437
Procedure, shortened: as §1

## CC1(C)CCC(c2ccc(Cl)cc2)=C(CN2CCN(c3ccc(C(=O)NS(=O)(=O)c4ccc(N[C@H](CCN5CCOCC5)CSc5ccccc5)c(S(=O)(=O)C(F)(F)F)c4)cc3)CC2)C1 [Navitoclax] + O=C(CCCCCCC(=O)Nc1ccccc1)NO [Vorinostat] (partner 1 µM)
[1]; first compound 0.005 µM
  relative viability: 1.05
[1]; first compound 0.01581 µM
  relative viability: 1.12
[1]; first compound 0.05 µM
  relative viability: 0.89
[1]; first compound 0.1581 µM
  relative viability: 0.937
[1]; first compound 0.5 µM
  relative viability: 1.02
[2]; first compound 0.005 µM
  relative viability: 0.617
[2]; first compound 0.01581 µM
  relative viability: 0.658
[2]; first compound 0.05 µM
  relative viability: 0.593
[2]; first compound 0.1581 µM
  relative viability: 0.572
[2]; first compound 0.5 µM
  relative viability: 0.417
[3]; first compound 0.005 µM
  relative viability: 0.73
[3]; first compound 0.01581 µM
  relative viability: 0.825
[3]; first compound 0.05 µM
  relative viability: 0.901
[3]; first compound 0.1581 µM
  relative viability: 0.806
[3]; first compound 0.5 µM
  relative viability: 0.903
[4]; first compound 0.005 µM
  relative viability: 1.13
[4]; first compound 0.01581 µM
  relative viability: 1.07
[4]; first compound 0.05 µM
  relative viability: 0.988
[4]; first compound 0.1581 µM
  relative viability: 1.12
[4]; first compound 0.5 µM
  relative viability: 1.09
[5]; first compound 0.005 µM
  relative viability: 0.951
[5]; first compound 0.01581 µM
  relative viability: 0.902
[5]; first compound 0.05 µM
  relative viability: 0.619
[5]; first compound 0.1581 µM
  relative viability: 0.77
[5]; first compound 0.5 µM
  relative viability: 0.907
[6]; first compound 0.005 µM
  relative viability: 0.669
[6]; first compound 0.01581 µM
  relative viability: 0.644
[6]; first compound 0.05 µM
  relative viability: 0.618
[6]; first compound 0.1581 µM
  relative viability: 0.529
[6]; first compound 0.5 µM
  relative viability: 0.842
[7]; first compound 0.005 µM
  relative viability: 0.73
[7]; first compound 0.01581 µM
  relative viability: 0.928
[7]; first compound 0.05 µM
  relative viability: 0.96
[7]; first compound 0.1581 µM
  relative viability: 0.807
[7]; first compound 0.5 µM
  relative viability: 0.665
[8]; first compound 0.005 µM
  relative viability: 0.857
[8]; first compound 0.01581 µM
  relative viability: 0.745
[8]; first compound 0.05 µM
  relative viability: 0.659
[8]; first compound 0.1581 µM
  relative viability: 0.717
[8]; first compound 0.5 µM
  relative viability: 0.979
[9]; first compound 0.005 µM
  relative viability: 0.752
[9]; first compound 0.01581 µM
  relative viability: 0.842
[9]; first compound 0.05 µM
  relative viability: 0.697
[9]; first compound 0.1581 µM
  relative viability: 0.799
[9]; first compound 0.5 µM
  relative viability: 0.814
[10]; first compound 0.005 µM
  relative viability: 0.653
[10]; first compound 0.01581 µM
  relative viability: 0.862
[10]; first compound 0.05 µM
  relative viability: 0.802
[10]; first compound 0.1581 µM
  relative viability: 0.682
[10]; first compound 0.5 µM
  relative viability: 0.659
[11]; first compound 0.005 µM
  relative viability: 0.834
[11]; first compound 0.01581 µM
  relative viability: 0.888
[11]; first compound 0.05 µM
  relative viability: 0.847
[11]; first compound 0.1581 µM
  relative viability: 0.88
[11]; first compound 0.5 µM
  relative viability: 0.808
